From patent publication US7399607B2, “Fluorescence polarization assays for determining clostridial toxin activity” (priority 2004, dated 2008)

Tested on: BoNT/A
Type: biochemical
Details: not given

In the case of “GFP-SNAP25(134-206)-His6-C-Alexa Fluor® 594”, the depolarization during proteolysis is reported as “approximately 20 mP”.

Tested on: BoNT/A
Details: cited from earlier work

Compared with SNKTRIDEAAQRATKML [Peptide N10A], SNKTRIDEANARATKML [Peptide Q11A] is higher in “Relative Rate” value: 0.06 for the first, 0.19 for the second.

Compared with SNKTRIDEANBRATKML [Peptide Q11B], SNKTRIDEANNRATKML [Peptide Q11N] is higher in “Relative Rate” value: 0.25 for the first, 0.66 for the second.

First: SNKTRIDEANQRABKML [Peptide T14B]
Second: SNKTRIDEANQRASKML [Peptide T14S]
The “Relative Rate” value of the first is higher: 1.20 for the first, 0.26 for the second.

Going from SNKTRIDEANQRATAML [Peptide K15A] to SNKTRIDEANQRATK [[1-15]], the “Relative Rate” value falls from 0.12 to 0.03.

Compared with SNKTRIDEANQRATKAL [Peptide M16A], SNKTRIDEANQRATKM [[1-16]] is higher in “Relative Rate” value: 0.38 for the first, 1.17 for the second.

Compared with SNKTRIDEANQRATKML [[1-17]], SNKTRIDEANQRATKXL [Peptide M16X] is higher in “Relative Rate” value: 1.00 for the first, 1.20 for the second.

Going from SNKTRIDEANQRBTKML [Peptide A13B] to SNKTRIDEBNQRATKML [Peptide A9B], the “Relative Rate” value falls from 0.79 to 0.38.

Going from SNKTRIDQANQRATKML [Peptide E8Q] to SNKTRINEANQRATKML [Peptide D7N], the “Relative Rate” value falls from 2.08 to 0.23.
